How the values were obtained:
[1] = test system: tumor-infiltrating immune cells in GL261 gliomas; test: Immune cells in GL261 gliomas (immunohistochemistry, flow cytometry); format: in vivo, mouse
Experimental: The animals were sacrificed on the day 21 after GL261 tdTomato^+luc^+ cell implantation and perfused with 4% paraformaldehyde in PBS. Brains were removed, post-fixed for 48 h in the same fixative solution and placed in 30% sucrose in PBS at 4°C until the tissue sunk to the bottom of the flask. Tissue was frozen in Tissue Freezing Medium (Jung; Nussloch, Germany) and cut in 12 µm coronal sections using a cryostat. The slides were dried at room temperature for 2 h after being transferred from the -80°C storage. Cryosections were blocked in PBS containing 10% donkey serum and 0.1% Triton X-100 for 2 h and incubated overnight at 4°C with rabbit anti-Iba-1 and goat anti-Arg1 or with rabbit anti-CD8 antibodies. Next, sections were washed in PBS and incubated with corresponding secondary antibodies for 2 h at room temperature. All antibodies were diluted in 0.1% Triton X-100/PBS solution containing 3% donkey serum. Nuclei were counterstained with DAPI (1 µg/mL). Images were obtained using the Olympus microscope (Fluoview, FV10i). For reagent specifications, catalogue numbers, and concentrations, see the Supplementary Table 1. To quantify the tumor size, sections were stained with toluidine blue, and images were acquired using a Leica DM4000B microscope (Leica Microsystems, Wetzlar, Germany). Tumor areas were measured using ImageJ software (NIH, Bethesda, MD, USA) on every sixth brain slice, and tumor volumes were calculated as previously described ([26]).
On day 28 after GL261 tdTomato^+luc^+ cell implantation mice were perfused transcardially with cold phosphate-buffered saline (PBS) to clear away blood cells from the brain. […] Next, cells were collected, washed with PBS and counted using NucleoCounter (Chemometec, Denmark). […]
All antibodies were titrated prior to staining to establish the amount yielding the best stain index. Data were acquired using a BD LSR Fortessa Analyzer cytometer and analyzed with FlowJo software (v. 10.5.3, FlowJo LLC, BD). Gates were set based on FMO (fluorescence minus one) controls and back-gating analysis. […]

[2] = Drug concentration in brain by LC-MS; format: in vivo, mouse; settings: GL261-bearing mice, 50 mg/kg oral twice a day, 14 days, 2 h after last dose
Experimental: Blood plasma, as well as the brain samples (from control and treated animals), were prepared for liquid chromatography coupled with mass spectrometry (LC-MS) by homogenization in 5% trichloroacetic acid (TCA) and the concentration of L-arginine – the substrate of arginase – was determined. In the urea cycle, arginase cleaves arginine to produce urea and ornithine. Ornithine reacts with carbamoyl phosphate to form citrulline. The brain homogenates prepared for arginine measurements, as well as plasma samples were also analyzed by LC-MS to determine the concentration of the drug, which was administered to animals 2 h before the euthanasia.

BV2 microglial cells = test: MTT viability assay, BV2; format: cell-based, mouse; settings: 24 h, concentrations up to 1000 µM
Experimental: Cell viability was assessed using MTT metabolism assay (U87 and BV2 cells) or MTS CellTiter 96® AQueous One Solution Cell Proliferation Assay (Promega) for the primary murine microglia cultures. Cells were cultured either in 96-well plates (U87 at density of 1×10^4) or 24-well plates (BV2 at density of 4×10^4 and primary microglia 8×10^4) with the indicated concentrations of the inhibitor or H2O (vehicle) for 24 h. MTT solution (Sigma Aldrich) was added to each well to a final concentration of 0.5 mg/mL. After 1 h of incubation at 37°C, water-insoluble dark blue formazan crystals were dissolved in DMSO. Optical densities (OD) were measured at 570 and 620 nm using a scanning multiwell spectrophotometer. The MTT assay was performed according to the manufacturer’s protocol. All measurements were carried out on three independent cell passages, in triplicates.

CN(C)C[C@@H]1CC[C@@H](CCB(O)O)C[C@]1(N)C(=O)O [OAT-1746]
percentage of microglia (CD11b+CD45low) and blood-derived macrophages (CD11b+CD45high) ([1]; flow cytometry, day 28): did not change | accumulation of CD8+ cells ([1]; immunohistochemistry, day 21): did not affect | accumulation of Iba1+ and Arg1+ cells in gliomas ([1]; immunohistochemistry, day 21): did not change | OAT-1746 in the brain (crossing of the BBB) [2]: detected in the brain extracts | viability of BV2 microglial cells (toxicity) (BV2 microglial cells): not toxic

Reference: publication PMC8422859, “A Novel Oral Arginase 1/2 Inhibitor Enhances the Antitumor Effect of PD-1 Inhibition in Murine Experimental Gliomas by Altering the Immunosuppressive Environment” (Frontiers in Oncology, 2021)
